Assay results published in ChEMBL document CHEMBL5338813 (J Med Chem, 2023).
The source made the active and inactive calls. No cut-off for these calls is given here.

Experiments:
[1] = molecular target: Voltage-gated inwardly rectifying potassium channel KCNH2 (Homo sapiens, UniProt Q12809); test: (§1) Displacement of [3H]Dofetilide from human ERG at 30 uM by automated patch clamp assay relative to control; settings: 30 µM
[2] = Cmax in mouse Jejunum at 5 mg/kg, po measured upto 24 hrs by LC-MS/MS analysis; assay type: ADME, organism-based; parameters: dose 5 mg/kg, time < 24 hrs, route po; settings: in vivo
[3] = AUC in mouse Jejunum at 5 mg/kg, po measured upto 24 hrs by LC-MS/MS analysis; assay type: ADME, organism-based; parameters: dose 5 mg/kg, time < 24 hrs, route po; settings: in vivo
[4] = Plasma protein binding in mouse at 1 uM incubated for 30 mins by LC-MS/MS analysis; assay type: ADME, cell-free; settings: 0.5 h
[5] = Metabolic stability in mouse liver microsomes assessed as intrinsic clearance measured upto 60 mins; assay type: ADME, Microsome; settings: read-out: CLH
[6] = AUC in mouse plasma at 5 mg/kg, po measured upto 24 hrs by LC-MS/MS analysis; assay type: ADME, organism-based; parameters: dose 5 mg/kg, time < 24 hrs, route po; settings: in vivo
[7] = Plasma protein binding in human at 1 uM incubated for 30 mins by LC-MS/MS analysis; assay type: ADME, cell-free; settings: 0.5 h
[8] = Metabolic stability in mouse liver microsomes assessed as half life measured upto 60 mins; assay type: ADME, Microsome; settings: 1 h
[9] = Tmax in mouse plasma at 5 mg/kg, po measured upto 24 hrs by LC-MS/MS analysis; assay type: ADME, organism-based; settings: in vivo
[10] = Cmax in mouse plasma at 5 mg/kg, po measured upto 24 hrs by LC-MS/MS analysis; assay type: ADME, organism-based; parameters: time < 24 hrs, dose 5 mg/kg, route po; settings: in vivo
[11] = Metabolic stability in mouse intestinal S9 fraction assessed as intrinsic clearance measured upto 60 mins; assay type: ADME, subcellular, Intestine; settings: read-out: CLH
[12] = Tmax in mouse Jejunum at 5 mg/kg, po measured upto 24 hrs by LC-MS/MS analysis; assay type: ADME, organism-based; settings: in vivo
[13] = Metabolic stability in mouse intestinal S9 fraction assessed as half life measured upto 60 mins; assay type: ADME, subcellular, Intestine; settings: s9, 1 h
Cryptosporidium parvum [14] = test: Antiparasitic activity against Cryptosporidium parvum infected in human HCT-8 cells assessed as parasitic growth inhibition incubated for 48 hrs by fluorescence microscopic analysis; assay type: functional, organism-based; settings: HCT-8, 48 h
HCT-8 = test: Cytotoxicity against human HCT-8 cells assessed as reduction in cell number upto 50 uM incubated for 48 hrs by; assay type: toxicity, cell-based; settings: hct-8, 48 h
hERG (KCNH2) [15] = molecular target: T1, hERG (KCNH2) (Homo sapiens, UniProt Q12809); test: as §1; settings: probe [3H]Dofetilide, read-out: Activity
Cryptosporidium parvum [16] = test: Antiparasitic activity against Cryptosporidium parvum infected in mouse assessed as reduction in parasitic growth at >= 5 mg/kg, po pre-infected with parasite for 7 days followed by compound addition twice daily for 4 days; assay type: functional; parameters: scale not given: the % may be the effect or the level left; settings: time 4 day
Cryptosporidium parvum [17] = test: Antiparasitic activity against Cryptosporidium parvum infected in mouse assessed as relapse in parasite growth at 5 mg/kg, po pre-infected with parasite for 7 days followed by compound addition twice daily for 4 days; assay type: functional, organism-based; settings: time 4.0 day
hERG (KCNH2) [18] = molecular target: T1, hERG (KCNH2); test: Inhibition of human ERG expressed in CHO cells at 30 uM by automated patch clamp assay relative to control; assay type: cell-based; settings: CHO cells that express hERG
Cryptosporidium parvum [19] = test: Antiparasitic activity against Cryptosporidium parvum infected in mouse assessed as relapse in parasite growth at >=5 mg/kg, po pre-infected with parasite for 7 days followed by compound addition twice daily for 4 days; assay type: functional, organism-based; settings: time 4.0 day
hERG (KCNH2) [20] = molecular target: T1, hERG (KCNH2); test: Inhibition of human ERG expressed in CHO cells at 1 uM by automated patch clamp assay relative to control; assay type: cell-based; settings: CHO cells that express hERG
hERG (KCNH2) [21] = molecular target: T1, hERG (KCNH2); test: Inhibition of human ERG expressed in CHO cells at 10 uM by automated patch clamp assay relative to control; assay type: cell-based; settings: CHO cells that express hERG

Sequence of Voltage-gated inwardly rectifying potassium channel KCNH2 (Q12809 whole entry): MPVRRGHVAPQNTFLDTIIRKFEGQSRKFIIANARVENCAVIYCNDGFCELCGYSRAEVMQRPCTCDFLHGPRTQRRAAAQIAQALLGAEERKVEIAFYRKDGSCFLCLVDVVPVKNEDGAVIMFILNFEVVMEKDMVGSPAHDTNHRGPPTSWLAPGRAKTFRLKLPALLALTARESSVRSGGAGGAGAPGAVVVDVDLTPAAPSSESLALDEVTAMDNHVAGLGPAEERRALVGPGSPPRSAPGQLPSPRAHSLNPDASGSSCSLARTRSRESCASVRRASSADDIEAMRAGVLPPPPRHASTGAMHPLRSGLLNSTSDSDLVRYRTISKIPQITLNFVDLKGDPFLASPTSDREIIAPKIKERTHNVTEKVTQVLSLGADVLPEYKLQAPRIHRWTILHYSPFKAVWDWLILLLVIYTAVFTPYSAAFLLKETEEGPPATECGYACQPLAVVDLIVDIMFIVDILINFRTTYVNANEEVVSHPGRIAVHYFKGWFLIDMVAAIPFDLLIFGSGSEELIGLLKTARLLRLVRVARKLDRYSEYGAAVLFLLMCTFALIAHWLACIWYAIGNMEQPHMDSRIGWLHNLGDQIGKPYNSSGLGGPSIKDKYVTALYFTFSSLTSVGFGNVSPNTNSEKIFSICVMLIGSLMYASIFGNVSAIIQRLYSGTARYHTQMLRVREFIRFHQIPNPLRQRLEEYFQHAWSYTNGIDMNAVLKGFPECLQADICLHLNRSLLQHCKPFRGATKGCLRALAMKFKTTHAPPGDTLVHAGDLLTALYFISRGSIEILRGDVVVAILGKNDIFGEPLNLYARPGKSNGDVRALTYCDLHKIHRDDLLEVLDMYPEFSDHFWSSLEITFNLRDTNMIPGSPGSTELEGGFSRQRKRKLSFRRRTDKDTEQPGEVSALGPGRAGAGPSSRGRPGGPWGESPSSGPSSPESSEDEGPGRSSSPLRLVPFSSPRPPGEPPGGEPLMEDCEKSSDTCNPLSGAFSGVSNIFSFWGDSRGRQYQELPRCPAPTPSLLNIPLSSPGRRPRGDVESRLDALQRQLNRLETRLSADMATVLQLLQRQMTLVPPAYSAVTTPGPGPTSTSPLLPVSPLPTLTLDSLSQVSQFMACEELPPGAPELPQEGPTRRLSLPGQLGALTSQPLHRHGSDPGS
T1 sequence (Q12809 whole entry): as above

Cmax [2] [ng/g]	AUC [3] [ng·h/g]	PPB [4] [%]	microsomal CLint [5] [µL/min/mg]	AUC [6] [ng·h/mL]	t1/2 [8] [h]	Tmax [9] [h]	Cmax [10] [ng/mL]	microsomal CLint [11] [µL/min/mg]	Tmax [12] [h]	t1/2 [13] [h]	SMILES	Activity [1] [%]	EC50 (Cryptosporidium parvum [14]) [nM]	Activity (HCT-8)	inhibition at 30 µM (hERG (KCNH2) [15]) [%]	also measured
317	3013	92.7	85.2	3387	1.38	1	532	< 5.8	1	> 2	O=C(Cc1ccc(Cl)c(Cl)c1)N1CCN(c2ccc3nncn3n2)CC1	46				PPB [7]: 98.2%
											O=C(Cc1cc(C(F)(F)F)cc(C(F)(F)F)c1)N1CCN(c2ccc3nncn3n2)CC1	54	320	Non-Toxic		
											O=C(Cc1ccc(F)c(CF)c1)N1CCN(c2ccc3nncn3n2)CC1		760	Non-Toxic	38	
299	2998	51.8	< 57.8	3300	> 2	1	568	< 5.8	2	> 2	O=C(Cc1ccc(F)c(C(F)(F)F)c1)N1CCN(c2ccc3nncn3n2)CC1	43	70	Non-Toxic		Activity (Cryptosporidium parvum [16]): >99%; Activity (Cryptosporidium parvum [17]): inactive; inhibition at 30 µM (hERG (KCNH2) [18]): 84%; Activity (Cryptosporidium parvum [19]): Active; inhibition at 1 µM (hERG (KCNH2) [20]): 15%; inhibition at 10 µM (hERG (KCNH2) [21]): 58%
											O=C(Cc1ccc(F)c(C(F)F)c1)N1CCN(c2ccc3nncn3n2)CC1		470	Non-Toxic	23	
